Consider 17 compounds from patent US20250186437A1, “CARBOLINE COMPOUNDS AND USE THEREOF” (PTC Therapeutics, Inc., priority 2021, published 2025).

Assay [1] has as its system MOLM-13 cells. Kind of assay: MOLM-13 Uridine Rescue Assay. To be noted: Homo sapiens; MOLM-13 cell proliferation with 100 μM Uridine added, 72 Hours of culture. It counts as cell-based. As for the experimental part: The following assay was conducted to measure proliferation of MOLM-13 cells in the presence of each compound studied. This assay was included as an indicator of DHODH inhibition, as growth of MOLM-13 cells is known to depend on synthesis of pyrimidines using the de novo pathway, which can be blocked by inhibition of DHODH. • 1. MOLM-13 cells were cultured in RPMI 1640 medium+10% Fetal Bovine Serum (FBS). Only low passage cells (<20) were used for the compound tests • 2. On day 1, Log-phase growing Molm-13 Cells were counted and diluted to 10^5 cells/mL in RPMI 1640 medium+10% FBS • 3. 100 μL of diluted MOLM-13 cells in 96 well white plates were seeded, for a final density of 10^4 cells/well. • 4. 0.5 μL of pre-diluted 200× compounds or DMSO control was added to each well. The final DMSO concentration was 0.5%. • 5. After 72 Hours of culture at 37° C., 5% CO2, the plates were taken out and cooled to RT, then 50 μL CellTiter-Glo® (Promega) was added, and the composition was mixed at RT for 10 minutes. • 6. The plates were then read by ViewLux (Speed-fast, Gain-High, Bining-1X, 5 seconds).
Several compounds were also tested in a Uridine rescue assay. In the Uridine rescue assay, using the procedure in Example 1 above, an additional plate of MOLM-13 cell cultures was prepared, to which 100 μM of Uridine was added in step 3 of the process.

Assay [2] deals with MOLM-13 cells. Nature of the assay: MOLM-13 Cell Proliferation Assay (indicator of DHODH inhibition). It counts as cell-based. To be noted: Homo sapiens, 72 Hours of culture, CellTiter-Glo, no uridine. An outline of the steps: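 Low-passage MOLM-13 cells (10^4/well) in RPMI 1640 + 10% FBS exposed to compound (0.5% DMSO final) for 72 h at 37 °C, 5% CO2. Viability read by CellTiter-Glo luminescence; growth reflects de novo pyrimidine synthesis dependent on DHODH.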

Consider `CN1CCN(c2ncc([C@H]3c4[nH]c5ccc(Cl)cc5c4CCN3c3nc(C(F)(F)F)cc(C(F)(F)F)n3)cn2)CC1` [Compound 419, (1S)-2-[4,6-bis(trifluoromethyl)pyrimidin-2-yl]-6-chloro-1-[2-(4-methylpiperazin-1-yl)pyrimidin-5-yl]-2,3,4,9-tetrahydro-1H-pyrido[3,4-b]indole], for which the IC50 came to 5640 nM in the assay with MOLM-13 cells [1] and 0.5 nM with MOLM-13 cells [2].

On to `FC(F)(F)c1nc(N2CCc3c([nH]c4ccc(Cl)cc34)[C@@H]2c2ccc(N3CCOCC3)nc2)nc(C(F)(F)F)n1` [Compound 405, (1S)-2-[4,6-bis(trifluoromethyl)-1,3,5-triazin-2-yl]-6-chloro-1-[6-(morpholin-4-yl)pyridin-3-yl]-2,3,4,9-tetrahydro-1H-pyrido[3,4-b]indole], for which the IC50 in the assay with MOLM-13 cells [1] came out at 5880 nM; in the assay on MOLM-13 cells [2], 0.2 nM.

With `Nc1cc2[nH]c3c(c2cc1Cl)CCN(c1nccc(C(F)(F)F)n1)C3c1cnc(N2CCOCC2)nc1` (stereo not shown) [Compound 311, 6-chloro-1-[2-(morpholin-4-yl)pyrimidin-5-yl]-2-[4-(trifluoromethyl)pyrimidin-2-yl]-2,3,4,9-tetrahydro-1H-pyrido[3,4-b]indol-7-amine], the IC50 amounted to 8470 nM in the assay with MOLM-13 cells [1] and 2.1 nM in the assay with MOLM-13 cells [2].

As to `Cc1ccc2[nH]c3c(c2c1)CCN(c1nccc(C(F)(F)F)n1)C3c1ccc(C)c(F)c1F` (stereo not shown) [Compound 271, 1-(2,3-difluoro-4-methylphenyl)-6-methyl-2-[4-(trifluoromethyl)pyrimidin-2-yl]-2,3,4,9-tetrahydro-1H-pyrido[3,4-b]indole], the IC50 was 22700 nM in the assay with MOLM-13 cells [1] and 3.7 nM in the assay with MOLM-13 cells [2].

As for `Cc1ccc([C@H]2c3[nH]c4ccc(Cl)cc4c3CCN2c2nc(C(F)(F)F)nc(C(F)(F)F)n2)c(F)c1F` [Compound 387, (1S)-2-[4,6-bis(trifluoromethyl)-1,3,5-triazin-2-yl]-6-chloro-1-(2,3-difluoro-4-methylphenyl)-2,3,4,9-tetrahydro-1H-pyrido[3,4-b]indole], the 50% inhibitory concentration (IC50) was determined as 7660 nM in the assay on MOLM-13 cells [1] and 0.2 nM in the assay on MOLM-13 cells [2].

Regarding `FC(F)(F)c1cc(C(F)(F)F)nc(N2CCc3c([nH]c4ccc(Cl)cc34)[C@@H]2c2cnc(N3CCOCC3)nc2)n1` [Compound 410, (1S)-2-[4,6-bis(trifluoromethyl)pyrimidin-2-yl]-6-chloro-1-[2-(morpholin-4-yl)pyrimidin-5-yl]-2,3,4,9-tetrahydro-1H-pyrido[3,4-b]indole], the IC50 in the assay on MOLM-13 cells [1] amounted to 14200 nM; in the assay on MOLM-13 cells [2], 0.3 nM.

In the case of `Cc1cc(C)nc(N2CCc3c([nH]c4ccc(Cl)cc34)C2c2ccc(N3CCOCC3)nc2)n1` (stereo not shown) [Compound 350, 6-chloro-2-(4,6-dimethylpyrimidin-2-yl)-1-[6-(morpholin-4-yl)pyridin-3-yl]-2,3,4,9-tetrahydro-1H-pyrido[3,4-b]indole], the IC50 turned out to be 14900 nM with MOLM-13 cells [1] and 4.8 nM in the assay on MOLM-13 cells [2].

Turning to `Cc1nc(C)nc(N2CCc3c([nH]c4ccc(Cl)cc34)[C@@H]2c2ccc(C)c(F)c2F)n1` [Compound 347, (1S)-6-chloro-1-(2,3-difluoro-4-methylphenyl)-2-(4,6-dimethyl-1,3,5-triazin-2-yl)-2,3,4,9-tetrahydro-1H-pyrido[3,4-b]indole], the IC50 in the assay on MOLM-13 cells [1] stood at 2770 nM; in the assay with MOLM-13 cells [2], 1.1 nM.

For the compound `CN1CCN(c2ncc(C3c4[nH]c5ccc(Cl)cc5c4CCN3c3nccc(C(F)(F)F)n3)cn2)CC1` (stereo not shown) [Compound 369, 6-chloro-1-[2-(4-methylpiperazin-1-yl)pyrimidin-5-yl]-2-[4-(trifluoromethyl)pyrimidin-2-yl]-2,3,4,9-tetrahydro-1H-pyrido[3,4-b]indole], the values for the IC50 with MOLM-13 cells [1] and in the assay with MOLM-13 cells [2] were 5020 nM and 4.5 nM, respectively.

Regarding `Cc1ccc(C2c3[nH]c4ccc(Cl)cc4c3CCN2c2nc(C)nc(C)n2)cc1` (stereo not shown) [Compound 355, 6-chloro-2-(4,6-dimethyl-1,3,5-triazin-2-yl)-1-(4-methylphenyl)-2,3,4,9-tetrahydro-1H-pyrido[3,4-b]indole], the figures for the IC50 in the assay with MOLM-13 cells [1] and in the assay on MOLM-13 cells [2] were 5660 nM and 11.7 nM, respectively.

Take `FC(F)(F)c1ncnc(N2CCc3c([nH]c4ccc(Cl)cc34)[C@@H]2c2cnc(N3CCOCC3)nc2)n1` [Compound 460, (1S)-6-chloro-1-[2-(morpholin-4-yl)pyrimidin-5-yl]-2-[4-(trifluoromethyl)-1,3,5-triazin-2-yl]-2,3,4,9-tetrahydro-1H-pyrido[3,4-b]indole]: the IC50 in the assay with MOLM-13 cells [1] was found to be 1160 nM; in the assay on MOLM-13 cells [2], 1.3 nM.

As to `Cc1ccc(C2c3[nH]c4ccc(Cl)cc4c3CCN2c2nc(C)cc(C(F)(F)F)n2)cc1` (stereo not shown) [Compound 361, 6-chloro-1-(4-methylphenyl)-2-[4-methyl-6-(trifluoromethyl)pyrimidin-2-yl]-2,3,4,9-tetrahydro-1H-pyrido[3,4-b]indole], the figures for the IC50 in the assay with MOLM-13 cells [1] and in the assay on MOLM-13 cells [2] were 22100 nM and 1.8 nM, respectively.

As for `FC(F)(F)c1nc(N2CCc3c([nH]c4ccc(Cl)cc34)C2c2cnc(N3CCOCC3)nc2)nc(C(F)(F)F)n1` (stereo not shown) [Compound 388, 2-[4,6-bis(trifluoromethyl)-1,3,5-triazin-2-yl]-6-chloro-1-[2-(morpholin-4-yl)pyrimidin-5-yl]-2,3,4,9-tetrahydro-1H-pyrido[3,4-b]indole], the IC50 with MOLM-13 cells [1] was 6640 nM; in the assay on MOLM-13 cells [2], 0.3 nM.

Take `FC(F)(F)c1ccnc(N2CCc3c([nH]c4ccc(-n5nccn5)cc34)C2c2ccc(N3CCOCC3)nc2)n1` (stereo not shown) [Compound 316, 1-[6-(morpholin-4-yl)pyridin-3-yl]-6-(2H-1,2,3-triazol-2-yl)-2-[4-(trifluoromethyl)pyrimidin-2-yl]-2,3,4,9-tetrahydro-1H-pyrido[3,4-b]indole]: the IC50 was determined as 10700 nM in the assay on MOLM-13 cells [1] and 3.8 nM with MOLM-13 cells [2].

As to `Cc1ccc(C2c3[nH]c4ccc(Cl)c(F)c4c3CCN2c2nccc(C(F)(F)F)n2)c(F)c1F` (stereo not shown) [Compound 197, 6-chloro-1-(2,3-difluoro-4-methylphenyl)-5-fluoro-2-[4-(trifluoromethyl)pyrimidin-2-yl]-2,3,4,9-tetrahydro-1H-pyrido[3,4-b]indole], the IC50 with MOLM-13 cells [1] is 17500 nM; with MOLM-13 cells [2], 1.1 nM.

Consider `N#Cc1ccnc(N2CCc3c([nH]c4ccc(Cl)cc34)C2c2cnc(N3CCOCC3)nc2)n1` (stereo not shown) [Compound 359, 2-{6-chloro-1-[2-(morpholin-4-yl)pyrimidin-5-yl]-1,3,4,9-tetrahydro-2H-pyrido[3,4-b]indol-2-yl}pyrimidine-4-carbonitrile], for which the IC50 in the assay with MOLM-13 cells [1] is 5670 nM; in the assay with MOLM-13 cells [2], 8 nM.

In the case of `FC(F)(F)c1ccnc(N2CCc3c([nH]c4ccc(Cl)cc34)[C@@H]2c2cnc(N3CCOCC3)nc2)n1` [Compound 408, (1S)-6-chloro-1-[2-(morpholin-4-yl)pyrimidin-5-yl]-2-[4-(trifluoromethyl)pyrimidin-2-yl]-2,3,4,9-tetrahydro-1H-pyrido[3,4-b]indole], the results for the 50% inhibitory concentration (IC50) with MOLM-13 cells [1] and with MOLM-13 cells [2] were 11000 nM and 1.2 nM, respectively.
